The source of these data is US20060280697A1, “Composition” (Conopco Inc, d/b/a UNILEVER, priority 2005, published 2006).

“Also recorded” adds a separate entry of the source.

This experiment can be described thus: cooling sensation / cooling effect of synthesised compounds.

As to `COc1cccc(C2=CCN(c3ccccc3O)C(=O)N2)c1` [1-(2′-hydroxyphenyl)-4-(3″-methoxyphenyl)-1,2,3,6-tetrahydropyrimidine-2-one], the cooling effect result is listed as “good cooling effects; also recorded: exhibit a cooling effect”.

As for `O=C1NC(c2ccccc2)=CCN1c1ccccc1O` [1-(2′-hydroxyphenyl)-4-phenyl-1,2,3,6-tetrahydropyrimidine-2-one], the cooling effect entry is reported as “good cooling effects; also recorded: exhibit a cooling effect”.

Take `O=C1NC(c2cccc([N+](=O)[O-])c2)=CCN1c1ccccc1C(F)(F)F` [1-(2′-trifluoromethylphenyl)-4-(3″-nitrophenyl)-1,2,3,6-tetrahydropyrimidine-2-one]: the cooling effect entry is on record as “good cooling effects; also recorded: exhibit a cooling effect”.

Turning to `O=C1NC(c2cccc([N+](=O)[O-])c2)=CCN1c1ccccc1` [1-phenyl-4-(3″-nitrophenyl)-1,2,3,6-tetrahydropyrimidine-2-one], the cooling effect result is reported as “good cooling effects; also recorded: exhibit a cooling effect”.
